Experimental data reported in patent US6613322B2, “Method for treating a subject suffering from conditions associated with an extracellular zinc sphingomyelinase” (The Trustees of Columbia University in the City of New York, priority 1997, dated 2003).

Test system: LDL
Conditions: 10-fold molar excess of choline-phosphate, no SMase
Protocol: Next it was determined which of the three consequences of SMase enzymatic activity, namely, generation of choline-phosphate, generation of ceramide, and depletion of SM, is responsible for LDL aggregation. […] Incubating LDL with a 10-fold molar excess of choline-phosphate was performed.

C[N+](C)(C)CCOP(=O)(O)O [choline-phosphate]
turbidity of LDL: failed to increase the turbidity of LDL
